In US6794378B2, “Heterocyclic compounds and medical use thereof” (Ajinomoto Co., Inc., priority 1999, dated 2004):
Values after ≈ are worked out from the molar mass of the structure shown.

Legend:
[1] = system: NF-kappa B transcriptional activity; test: Evaluation of the NF-kappa B inhibition (β-gal reporter in immortalized HUVEC, IL-1 β induced); type: cell-based; details: Homo sapiens; HUVEC NF-kappaB β-gal reporter cells; IL-1 β induction; β-gal activity determined 16 hours after; read-out: NFkB inhibition activity IC50
Description: Evaluation of the NF-kappa B Inhibition
Cells used for the tests were those prepared by stably introducing E. coli β-galactosidase (β-gal) genes driven by SV 40 minimum promoter fused with 6 tandems of the NF-KappaB binding motif derived from immunoglobulin kappa light chain enhancer into human normal umbilical cord vein endothelial cells (HUVEC) immortalized with SV 40 large T antigen. The cells were subcultured in RPMI medium containing 10% of FBS, and were seeded on a 96-well plate in a concentration of 1×10^4/well on a day before the start of the experiments. A compound of the present invention was dissolved in DMSO to obtain a solution of a proper concentration, which was added into the 96-well plate so that the final DMSO concentration would be not higher than 1%. 30 minutes after the addition of the compound, in order to induce NF-kappa B transcriptional activity, […] of IL-1 β was added to each well so as to obtain the final concentration of […]. β-gal activity was determined 16 hours after with a chemiluminescent substrate (Galacton-Light-Plus: Boehringer Mannheim) according to a protocol attached to the reagent. A Luminescence detector (ATTO) was used for the determination.

anti-TTx antibody titer = test: Antibody titer inhibition test (TTx-sensitized monkeys, ELISA); type: in vivo; details: Rhesus monkeys, 50 mg/kg orally twice daily for 4 weeks from TTx sensitization
Description: (§1) An antibody titer inhibition test and a delayed-type hypersensitivity reaction inhibition test
(§2) Rhesus monkeys (female, aged four to six) subjected to the test were sensitized with 6Lf of TTx (Tetanus Toxoid) both in the back skin and in the femur muscle under anesthesia by an intramuscular injection of ketamine. The subject drug at the dose of 50 mg/kg had been administered twice daily (7:00 am and 7:00 pm) for 4 weeks starting at the day of TTx sensitization. The drug was suspended with 0.5% Tween 80 solution and was orally administered using a gastric catheter. The control animals were administered with the vehicle in the same manner as those for the test article. One ml of blood was drawn from femoral vein of each animal twice a week to obtain sera with which the anti-TTx antibody titer was evaluated by the ELISA method. The antibody titer was determined with OD of serially-diluted serum from 1:100 by 2 times and was defined as the degree of dilution reaching to “an average OD of the antibody before immunization+2×SD”. One hour after the final administration in the morning on day 28, TTx was challenged once in the thoracic skin (10, 3, 1, 0.3, 0.1, 0.03 Lf/ml, 10 μl/site), and skin reactions at the injection sites were observed 24 and 48 hours after the TTx challenge. The delayed-type hypersensitivity reaction was scored according to the Draize dermal test criteria.

[2] = system: delayed-type hypersensitivity reaction; test: Delayed-type hypersensitivity reaction inhibition test (TTx challenge in thoracic skin); type: in vivo; details: Rhesus monkeys, 50 mg/kg orally twice daily for 4 weeks; TTx challenge day 28, skin reactions 24 and 48 hours after, Draize criteria
Description: as §1, §2

Compound	IC50 [1] [µg/mL]	inhibiting effect on anti-TTx antibody titer (anti-TTx antibody titer)	inhibiting effect on delayed-type hypersensitivity reaction [2]
CC1(C)CC1C(=O)Nc1ccc(Oc2ccc(NC(=O)C3CC3(C)C)cn2)cc1 (stereo not shown) [Example 1]	0.5 (≈ 1.27 µM)		
CC1(C)CC1C(=O)Nc1ccc(Sc2ccc(NC(=O)C3CC3(C)C)cn2)cc1 (stereo not shown) [Example 2]	0.3 (≈ 0.733 µM)		
CC1(C)CC1C(=O)Nc1ccc(Nc2ccc(NC(=O)C3CC3(C)C)cn2)cc1 (stereo not shown) [Example 3]	0.8 (≈ 2.04 µM)		
CC1(C)CC1C(=O)Nc1ccc(C(O)c2ccc(NC(=O)C3CC3(C)C)nc2)cc1 (stereo not shown) [Example 4]	1 (≈ 2.45 µM)		
CC1(C)CC1C(=O)Nc1ccc(Cc2ccc(NC(=O)C3CC3(C)C)nc2)cc1 (stereo not shown) [Example 5]	0.9 (≈ 2.3 µM)		
CC1(C)CC1C(=O)Nc1ccc(C(O)c2ccc(NC(=O)C3CC3(C)C)cn2)cc1 (stereo not shown) [Example 6]	0.4 (≈ 0.982 µM)		
CC1(C)CC1C(=O)Nc1ccc(Cc2ccc(NC(=O)C3CC3(C)C)cn2)cc1 (stereo not shown) [Example 7]	1.5 (≈ 3.83 µM)		
CC1(C)CC1C(=O)Nc1ccc(Oc2ccc(NC(=O)C3CC3(C)C)nn2)cc1 (stereo not shown) [Example 8]	1.5 (≈ 3.8 µM)		
CC1(C)CC1C(=O)Nc1ccc(Nc2ncc(NC(=O)C3CC3(C)C)cn2)cc1 (stereo not shown) [Example 9]	0.7 (≈ 1.78 µM)		
CC1(C)CC1C(=O)Nc1ccc(CSc2ccc(NC(=O)C3CC3(C)C)cn2)cc1 (stereo not shown) [Example 14]	0.015 (≈ 0.0354 µM)		
Cc1cc(Oc2ccc(NC(=O)C3CC3(C)C)cn2)ccc1NC(=O)C1CC1(C)C (stereo not shown) [Example 22]	0.15 (≈ 0.368 µM)		
O=C(Nc1ccc(Oc2ccc(NC(=O)C3CC3(Cl)Cl)cn2)cc1)C1CC1(Cl)Cl (stereo not shown) [Example 26]	0.15 (≈ 0.316 µM)		
CC1CCCCC1C(=O)Nc1ccc(Oc2ccc(NC(=O)C3CCCCC3C)cn2)cc1 (stereo not shown) [Example 29]	1 (≈ 2.22 µM)		
CC1(C)CC1C(=O)Nc1ccc(Oc2ccc(NC(=O)c3ccccc3)cc2)nc1 (stereo not shown) [Example 31]	1.5 (≈ 3.74 µM)		
CC1(C)CC1C(=O)Nc1ccc(Oc2ccc(NC(=O)Cc3ccccc3)cc2)nc1 (stereo not shown) [Example 32]	0.1 (≈ 0.241 µM)		
CC1(C)CC1C(=O)Nc1ccc(Oc2ccc(NC(=O)Cc3ccc(Cl)cc3)cc2)nc1 (stereo not shown) [Example 33]	0.2 (≈ 0.445 µM)		
COc1ccc(CC(=O)Nc2ccc(Oc3ccc(NC(=O)C4CC4(C)C)cn3)cc2)cc1 (stereo not shown) [Example 34]	0.3 (≈ 0.673 µM)		
CC1(C)CC1C(=O)Nc1ccc(Oc2ccc(NC(=O)CCCc3ccccc3)cc2)nc1 (stereo not shown) [Example 37]	0.09 (≈ 0.203 µM)		
CC1(C)CC1C(=O)Nc1ccc(Oc2ccc(NCCc3ccccc3)cc2)nc1 (stereo not shown) [Example 38]	0.05 (≈ 0.125 µM)		
CC1(C)CC1C(=O)Nc1ccc(Oc2ccc(NCCCc3ccccc3)cc2)nc1 (stereo not shown) [Example 39]	0.035 (≈ 0.0842 µM)		
CC1(C)C[C@@H]1C(=O)Nc1ccc(Oc2ccc(NC(=O)[C@H]3CC3(C)C)cn2)cc1 [Example 43]	0.25 (≈ 0.635 µM)	exhibited its inhibiting effect	exhibited its inhibiting effect
CC1(C)C[C@@H]1C(=O)Nc1ccc(Oc2ccc(NC(=O)[C@@H]3CC3(C)C)cc2)nc1 [Example 44]	0.1 (≈ 0.254 µM)		
CC1(C)C[C@@H]1C(=O)Nc1ccc(Oc2ccc(NC(=O)[C@@H]3CC3(C)C)cn2)cc1 [Example 45]	1 (≈ 2.54 µM)		
